Source: the NIST ThermoML archive (doi:10.1016/j.tca.2011.02.027)

Experiment: molar heat capacity at constant pressure; xn = mol fraction of the nth substance listed
Conditions: 101.3 kPa, Liquid, Large sample (1 g) DSC

CCCCn1cc[n+](C)c1.[Br-] [1-butyl-3-methylimidazolium bromide] + O
molar heat capacity at constant pressure [J/K/mol]
Conditions	x1 = 0.1	x1 = 0.2	x1 = 0.3	x1 = 0.4	x1 = 0.5	x1 = 0.6	x1 = 1
303.2 K	102.2	123.4	144.5	165	186.7	209.6	–
308.2 K	102.5	124.1	145.4	166.1	188	211.2	–
313.2 K	103	124.9	146.3	167.1	189.2	212.9	–
318.2 K	103.5	125.8	147.2	168.1	190.7	214.5	–
323.2 K	104	126.6	148.2	169.2	191.8	216.2	–
328.2 K	104.5	127.5	149.2	170.4	193.3	217.9	–
333.2 K	104.8	128.3	150.1	171.6	194.6	219.5	–
338.2 K	105.4	129.2	151.1	172.9	196.1	221.3	–
343.2 K	105.8	130	152.1	173.9	197.3	223.1	–
348.2 K	106.3	131.1	153.1	175.2	198.6	224.9	–
353.2 K	106.8	131.9	154.1	176.2	200	226.5	334.8
358.2 K	–	–	–	–	–	–	338.1
363.2 K	–	–	–	–	–	–	341.1
368.2 K	–	–	–	–	–	–	344.6
373.2 K	–	–	–	–	–	–	347.5
378.2 K	–	–	–	–	–	–	350.6
383.2 K	–	–	–	–	–	–	354.1
388.2 K	–	–	–	–	–	–	356.7
393.2 K	–	–	–	–	–	–	359.9
398.2 K	–	–	–	–	–	–	363.4
403.2 K	–	–	–	–	–	–	366.4
